Columns and labels:
[1] = test system: HEK293 cells; assay: Preliminary screening as mRNA vectors, EGFP mRNA transfection of HEK293 cells; assay type: cell-based; settings: 96-well plates, EGFP mRNA 50 ng per well, percentage of GFP fluorescent cells relative to total number of cells (Hoechst)
Procedure, shortened: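 HEK293 cells in DMEM plus 10% FBS transfected in 96-well format with 50 ng EGFP mRNA per well; Lipofectamine2000 served as positive control. Read-out is the percentage of GFP-fluorescent cells among total cells, counted by Hoechst nuclear stain.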

[2] = test system: HEK293 cells; assay: Preliminary screening as DNA vectors, GFP transfection of HEK293 cells; assay type: cell-based; settings: HEK293 cells; lipid/DOPE liposome with 75 ng plasmid DNA (psin-EGFP-IRES-Puro); number of cells expressing GFP divided by total number of nuclei (Hoechst)
Procedure, shortened: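 HEK293 cells in DMEM/10% FBS transfected with 75 ng EGFP plasmid per well complexed with amino lipid/DOPE liposomes in pH 5.6 sodium acetate. Hoechst nuclear stain added 20-24 h post-transfection, then cells cultured another 20-24 h. Confocal imaging gives GFP-positive cells as % of total nuclei.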

Row | SMILES | Absolute mRNA transfection efficiency in HEK293 cells ([1]; HEK293 cells) | Absolute DNA transfection efficiency in HEK293 cells [2] | Absolute mRNA transfection efficiency in HEK293 cells [1]
1 | CCCCCCCCCNc1nc(NCCCCCCCC)nc(NCCN(C)C)n1 [Compound N8N9D1] | 0.8% | 0.0% | 
2 | CCCCCCCCCNc1nc(NCCCCCCC)nc(NCCN(CC)CC)n1 [Compound N7N9D7] | 0.0% | 0.0% | 
3 | CCCCCCCCCCCCCCCCNc1nc(NCCCCCCCCCCC)nc(NCC2CCN(C)CC2)n1 [Compound N11N16D10] | 1.1% | 0.6% | 
4 | CCCCCCCCCCCCCCCNc1nc(NCCCCCCC)nc(NCCCN2CCN(C)CC2)n1 [Compound N7N15D9] | 0.7% | 0.6% | 
5 | CCCCCCCCCCCCCCCCNc1nc(NCCCCCCCCCCC)nc(NCCCN2CCN(C)CC2)n1 [Compound N11N16D9] | 0.9% | 0.0% | 
6 | CCCCCCCCCCCCNc1nc(NCCCCCCCCCCCC)nc(NCCN2CCOCC2)n1 [Compound N12N12D2] | 1.0% | 0.2% | 
7 | CCCCCCCCCCCCCCCCCCNc1nc(NCCN(C)C)nc(N(CCCCCCCCCCCC)CCCCCCCCCCCC)n1 [N18^2N12D1] | 0.4% | 1.0% | 
8 | CCCCCCCCCCCCNc1nc(NCCCCCCCC)nc(NCCCN2CCN(C)CC2)n1 [Compound N8N12D9] | 0.0% | 0.0% | 
9 | CCCCCCCCCCCCCCCCCCSc1nc(NCCN2CCN(C)CC2)nc(SCCCCCCCCC)n1 [Compound S9S18D5] | 22.0% | 4.0% | 
10 | CCCCCCCCCCCCCCCCSc1nc(NCC2CCN(C)CC2)nc(SCCCCCCCC)n1 [Compound S8S16D10] | 98.3% | 75.2% | 
11 | CCCCCCCCCCCCNc1nc(NCCCCCC)nc(NCCN2CCCC2)n1 [Compound N6N12D3] | 0.5% | 0.2% | 
12 | CCCCCCCCCCCCCCCCCCNc1nc(NCCCCCCCCC)nc(NCC2CCN(C)CC2)n1 [Compound N9N18D10] | 1.9% | 2.6% | 
13 | CCCCCCCCCNc1nc(NCCCCCC)nc(NCC2CCN(C)CC2)n1 [Compound N6N9D10] | 0.3% | 0.0% | 
14 | CCCCCCCCCCCCCCCNc1nc(NCCCCCCCCCCCC)nc(NCC2CCN(C)CC2)n1 [Compound N12N15D10] | 1.2% | 0.7% | 
15 | CCCCCCCCCCCCCCCCCCNc1nc(NCCN2CCOCC2)nc(N(CCCCCCCCCCCC)CCCCCCCCCCCC)n1 [N18^2N12D2] | 0.1% | 0.0% | 
16 | CCCCCCCCCCCCSc1nc(NCCCCCC)nc(NCCN2CCN(C)CC2)n1 [Compound D5S12N6] |  |  | 0.3%
17 | CCCCCCCCCNc1nc(NCCN2CCOCC2)nc(SCCCCCCCC)n1 [Compound D2S8N9] |  |  | 8.3%
18 | CCCCCCCCCCSc1nc(NCCCCCCCC)nc(NCCN(CC)CC)n1 [Compound D7S10N8] |  |  | 0.3%
19 | CCCCCCCCCCCCNc1nc(NCC2CCN(C)CC2)nc(SCCCCCCCCCC)n1 [Compound D10S10N12] |  |  | 15.5%
20 | CCCCCCCCCCCCCCSc1nc(NCCCN2CCN(C)CC2)nc(SCCCCCCC)n1 [Compound D9S7S14] |  |  | 34.5%

Row | SMILES | Absolute mRNA transfection efficiency in HEK293 cells ([1]; HEK293 cells) | Absolute DNA transfection efficiency in HEK293 cells [2] | Absolute mRNA transfection efficiency in HEK293 cells [1]
21 | CCCCCCCCCCCCNc1nc(NCCN2CCCC2)nc(SCCCCCCCCC)n1 [Compound D3S9N12] |  |  | 49.6%
22 | CCCCCCCCCCCNc1nc(NCCN(C)C)nc(SCCCCCCCCCC)n1 [Compound D1S10N11] |  |  | 6.2%
23 | CCCCCCCCCCCCCCCCCCNc1nc(NCCN2CCCC2)nc(SCCCCCCCCCCCCCC)n1 [Compound D3S14N18] |  |  | 1.5%
24 | CCCCCCCCCCCCCCCCNc1nc(NCCN2CCOCC2)nc(SCCCCCCCCCCC)n1 [Compound D2S11N16] |  |  | 1.1%
25 | CCCCCCCCCCCSc1nc(NCCCCCCC)nc(NCCN(CC)CC)n1 [Compound D7S11N7] |  |  | 11.8%
26 | CCCCCCCCCCSc1nc(NCCCCCC)nc(NCCN2CCCC2)n1 [Compound D3S10N6] |  |  | 0.4%
27 | CCCCCCCCCCCCCCCNc1nc(NCCN(C)C)nc(SCCCCCCCCCCC)n1 [Compound D1S11N15] |  |  | 6.2%
28 | CCCCCCCCSc1nc(NCCCCCCC)nc(NCCCN(C)C)n1 [Compound D6S8N7] |  |  | 4.3%
29 | CCCCCCCSc1nc(NCCN(CC)CC)nc(SCCCCCC)n1 [Compound D7S6S7] |  |  | 22.9%
30 | CCCCCCCCNc1nc(NCCCN2CCOCC2)nc(SCCCCCCC)n1 [Compound D8S7N8] |  |  | 1.8%
31 | CCCCCCCCCNc1nc(NCCN2CCCCC2)nc(SCCCCCCCCC)n1 [Compound D4S9N9] |  |  | 11.3%
32 | CCCCCCCCCCCCCCCCCCSc1nc(NCCCCCCCCCCCC)nc(NCCN(CC)CC)n1 [Compound D7S18N12] |  |  | 0.3%
33 | CCCCCCCCCNc1nc(NCCCN2CCOCC2)nc(SCCCCCCCCC)n1 [Compound D8S9N9] |  |  | 14.0%
34 | CCCCCCCCCCCCCCCCNc1nc(NCCCN(C)C)nc(SCCCCCCCCCC)n1 [Compound D6S10N16] |  |  | 51.5%
35 | CCCCCCCCCCCCCCCCCCNc1nc(NCCCN2CCOCC2)nc(SCCCCCCCCCCCC)n1 [Compound D8S12N18] |  |  | 1.1%
36 | CCCCCCCCCCCCCCCSc1nc(NCCCCCCCC)nc(NCC2CCN(C)CC2)n1 [Compound D10S15N8] |  |  | 12.9%
37 | CCCCCCCCCCCCCCCCSc1nc(NCCCCCC)nc(NCC2CCN(C)CC2)n1 [Compound D10S16N6] |  |  | 86.9%
38 | CCCCCCCCCNc1nc(NCCN2CCN(C)CC2)nc(SCCCCCCCC)n1 [Compound D5S8N9] |  |  | 11.2%
39 | CCCCCCCCCCCCN(CCCCCCCCCCCC)c1nc(NCCCN2CCN(C)CC2)nc(SCCCCCCCCC)n1 [D9S9^2N12] |  |  | 0.3%
40 | CCCCCCCCCCCCCCCSc1nc(NCCCCCCC)nc(NCCN2CCCC2)n1 [Compound D3S15N7] |  |  | 80.8%

Row | SMILES | Absolute mRNA transfection efficiency in HEK293 cells ([1]; HEK293 cells) | Absolute DNA transfection efficiency in HEK293 cells [2] | Absolute mRNA transfection efficiency in HEK293 cells [1]
41 | CCCCCCCCCCCCCCCCSc1nc(NCCN2CCOCC2)nc(SCCCCCC)n1 [Compound D2S6S16] |  |  | 16.0%
42 | CCCCCCCCCCCCSc1nc(NCCCCCCC)nc(NCCCN2CCOCC2)n1 [Compound D8S12N7] |  |  | 1.5%
43 | CCCCCCCCCCCCCCCCCCNc1nc(NCCN2CCCC2)nc(SCCCCCCCCCCCC)n1 [Compound D3S12N18] |  |  | 3.5%
44 | CCCCCCCCCCCCCNc1nc(NCCN(CC)CC)nc(SCCCCCCCC)n1 [Compound D7S8N13] |  |  | 14.2%
45 | CCCCCCCCCCSc1nc(NCCN(CC)CC)nc(SCCCCCCCC)n1 [Compound D7S8S10] |  |  | 7.6%
46 | CCCCCCCCCCCCCCSc1nc(NCCCCCCCCC)nc(NCCN(C)C)n1 [Compound D1S14N9] |  |  | 39.0%
47 | CCCCCCCCCCCCSc1nc(NCCN2CCCC2)nc(SCCCCCC)n1 [Compound D3S6S12] |  |  | 1.0%
48 | CCCCCCCCCCCCCCCNc1nc(NCCN(CC)CC)nc(SCCCCCCCCCCCCCC)n1 [Compound D7S14N15] |  |  | 0.8%
49 | CCCCCCCCCCSc1nc(NCCCN2CCN(C)CC2)nc(SCCCCCCCC)n1 [Compound D9S8S10] |  |  | 79.4%
50 | CCCCCCCCCCCCCNc1nc(NCCCN(C)C)nc(SCCCCCCCCCCCC)n1 [Compound D6S12N13] |  |  | 5.5%
51 | CCCCCCCCCCCCCCCNc1nc(NCCN2CCN(C)CC2)nc(SCCCCCC)n1 [Compound D5S6N15] |  |  | 16.4%
52 | CCCCCCCNc1nc(NCCCN2CCN(C)CC2)nc(SCCCCCCC)n1 [Compound D9S7N7] |  |  | 2.5%
53 | CCCCCCCCCCCCCCCNc1nc(NCCCN2CCN(C)CC2)nc(SCCCCCCCCCCCCCC)n1 [Compound D9S14N15] |  |  | 0.5%
54 | CCCCCCCCCCCNc1nc(NCCCN2CCN(C)CC2)nc(SCCCCCCC)n1 [Compound D9S7N11] |  |  | 13.8%
55 | CCCCCCCCCCCCCCCCCCSc1nc(NCCN2CCOCC2)nc(SCCCCCC)n1 [Compound D2S6S18] |  |  | 12.1%
56 | CCCCCCCSc1nc(NCC2CCN(C)CC2)nc(SCCCCCC)n1 [Compound D10S6S7] |  |  | 19.7%
57 | CCCCCCCCCCCCCCCCCCSc1nc(NCCCCCCCCC)nc(NCCCN2CCN(C)CC2)n1 [Compound D9S18N9] |  |  | 7.6%
58 | CCCCCCCCCCSc1nc(NCCCCCC)nc(NCCCN2CCOCC2)n1 [Compound D8S10N6] |  |  | 0.2%
59 | CCCCCCCSc1nc(NCCN2CCOCC2)nc(SCCCCCCC)n1 [Compound D2S7S7] |  |  | 4.9%

Source: patent US20230123334A1, “AMINO LIPID COMPOUND, PREPARATION METHOD THEREFOR, AND APPLICATION THEREOF” (SHENZHEN SHENXIN BIOTECHNOLOGY CO., LTD., priority 2020, published 2023)
